Reference: US8343475B2, “Small cationic antimicrobial peptides” (priority 2006, dated 2013)
≈ marks a conversion by molar mass, not a printed value. Residues, ends and D or L forms follow the SMILES beside them.

Key:
[1] = test system: Pseudomonas aeruginosa PAO1 strain H103; type: cell-based
How it was run: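 Modified broth microdilution MIC in Mueller Hinton medium, peptides diluted in 0.01% acetic acid/0.2% BSA, polypropylene plates. Inoculum 2-7×10^5 CFU/ml, overnight at 37 °C; MIC is the lowest concentration with no visible growth.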

[2] = test system: ESBL Klebsiella pneumonia clinical strain 63575; type: cell-based
Procedure: (§1) Minimal inhibitory concentration (MIC) determination. The MIC of the peptides were measured using a modified broth microdilution method in Mueller Hinton (MH) medium (Wu M, Hancock R E W. 1999. Interaction of the cyclic antimicrobial cationic peptide bactenecin with the outer and cytoplasmic membrane. J Biol Chem 274, 29-35). Briefly, the peptides were dissolved and stored in glass vials. The assay was performed in sterile 96-well polypropylene microtitre plates were used. Serial dilutions of the peptides to be assayed were performed in 0.01% acetic acid (Fisher) containing 0.2% bovine serum albumin (Boehringer Mannheim GmbH) at 10× the desired final concentration. Ten microlitres of the 10× peptides were added to each well of a 96-well polypropylene plate containing 90 μl of MH media per well. Bacteria were added to the plate from an overnight culture at 2-7×10^5 colony forming units/ml and incubated over night at 37° C. The MIC was taken as the concentration at which no growth was observed.
(§2) The selected peptides were synthesized and assayed against several major antibiotic-resistant pathogens. Initially, the peptides were screened against the laboratory strain of P. aeruginosa PAO1 to compare the results with the training data. […] The antibacterial activity in the form of minimal inhibitory concentration (MIC) of the other studied peptides was assessed in greater depth (Table 9) against many highly antibiotic resistanct pathogens.

[3] = test system: multidrug resistant Pseudomonas maltophilia ATCC13637; type: cell-based
Procedure: as §1, §2

[4] = test system: ESBL E. coli clinical strain 64771; type: cell-based; settings: ESBL clinical strain 64771
Procedure: as §1, §2

[5] = test system: MCP-3 release by human PBMC; assay: Chemokine induction in PBMC (capture ELISA); type: cell-based; settings: background (6) subtracted
How it was run: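 Human PBMC from healthy donors (Ficoll-isolated), 7.5×10^5 cells at 0.75–1×10^6 cells/ml, treated with peptides at 20 or 100 μg/ml for 24 h at 37° C, 5% CO2. MCP-3 in cell-free supernatants measured by capture ELISA.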

[6] = test system: Liverpool Epidemic Strains; type: cell-based, Pseudomonas aeruginosa
Procedure: as §1
(§3) All peptides derived from the 1st, 2nd, and 3rd quartiles were further evaluated for their antibacterial activities against several highly antibitoic resistant pathogens (Table 3). These included clinical isolates of MRSA, ESBL E. cloacae, and multidrug resistant Pseudomonas strains including Brazilian clinical isolates of P. aeruginosa that are resistant to meropenem, ceftazidime, piperacillin/tazobactam, ciprofloxacin, cefepime and polymyxin B, and the Liverpool Epidemic Strains. […] Such results characterize the developed peptides as excellent antibiotic candidates, providing new means for treating most dangerous and severe forms of human infections.

[7] = test system: Enterococcus faecalis ATCC29212; type: cell-based; settings: ATCC29212
How it was run: (§4)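 MIC by modified broth microdilution in Mueller Hinton medium. Peptides were diluted in 0.01% acetic acid with 0.2% BSA and added at 10× to inoculum of 2-7×10^5 CFU/ml, then incubated overnight at 37 °C. MIC is the lowest concentration with no visible growth.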

[8] = test system: Staphylococcus aureus ATCC25923; type: cell-based; settings: ATCC25923
How it was run: as §4

[9] = test system: clinical isolates of MRSA; type: cell-based, Staphylococcus aureus
Procedure: as §1, §3

[10] = test system: CXCL1 (Gro-α) release by human PBMC; assay: Chemokine induction in PBMC (capture ELISA); type: cell-based; settings: background (196) subtracted
How it was run: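 Human PBMC from healthy donors' heparinised blood (Ficoll), 7.5×10^5 cells treated with 20 or 100 μg/ml peptide for 24 h at 37° C, 5% CO2. Cell-free supernatants assayed for CXCL1 by capture ELISA.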

[11] = test system: MCP-1 release by human PBMC; assay: Chemokine induction in PBMC (capture ELISA); type: cell-based; settings: background (204) subtracted
How it was run: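 Heparinized blood from healthy volunteers; Ficoll-isolated human PBMC (7.5×10^5) treated with peptides at 20 or 100 μg/ml for 24 hours at 37° C, 5% CO2. Cell-free supernatants assayed for MCP-1 by capture ELISA.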

ESBL E. cloacae = type: cell-based, Enterobacter cloacae
Procedure: as §1, §3

[12] = test system: wild-type Salmonella enterica ssp. typhimurium; type: cell-based
How it was run: as §4

[13] = test system: lab isolate of Candida albicans; type: cell-based; settings: lab isolate of
How it was run: as §4

Escherichia coli UB1005 = type: cell-based; settings: UB1005
How it was run: as §4

[14] = test system: clinical isolate of Staphylococcus epidermidis; type: cell-based; settings: clinical isolate of
How it was run: as §4

SMILES | MIC against P. aeruginosa PAO1 ([1]; PAO1) | MIC [2] | MIC [3] | MIC [4] | MIC [6] | MIC [7] | MIC [8] | MIC [9] | MIC (ESBL E. cloacae) | Chemokine induction MCP-3 ([5]; 20 μg/ml peptide) | Chemokine induction MCP-3 ([5]; 100 μg/ml peptide) | Chemokine induction Gro-α ([10]; 20 μg/ml peptide) | Chemokine induction Gro-α ([10]; 100 μg/ml peptide) | Chemokine induction MCP-1 ([11]; 20 μg/ml peptide) | Chemokine induction MCP-1 ([11]; 100 μg/ml peptide) | further results
CC[C@H](C)[C@H](NC(=O)[C@H](Cc1c[nH]c2ccccc12)NC(=O)[C@@H](NC(=O)[C@H](Cc1c[nH]c2ccccc12)NC(=O)[C@H](CCCNC(=N)N)NC(=O)[C@H](CCCCN)NC(=O)[C@@H](N)CCCCN)C(C)C)C(=O)N[C@@H](CCCNC(=N)N)C(=O)N[C@@H](Cc1ccc(O)cc1)C(N)=O [HHC69, KKRWVWIRY] (H-KKRWVWIRY-NH2; N-terminus assumed) | 4 to 12 µM | 51 µM (≈ 68 µg/mL) | 1.6 µM (≈ 2.13 µg/mL) | 13 µM (≈ 17.3 µg/mL) | 3 µM (≈ 4 µg/mL) | 25 µM (≈ 33.3 µg/mL) | 13 µM (≈ 17.3 µg/mL) | 13 µM (≈ 17.3 µg/mL) | 25 µM (≈ 33.3 µg/mL) | 1 pg/mL | 0 pg/mL | 17 pg/mL | -3 pg/mL | 440 pg/mL | 245 pg/mL | 
CC[C@H](C)[C@H](NC(=O)[C@H](CCCNC(=N)N)NC(=O)[C@H](C)NC(=O)[C@H](CC(C)C)NC(=O)[C@@H](N)CCCNC(=N)N)C(=O)N[C@H](C(=O)N[C@H](C(=O)N[C@H](C(=O)N[C@@H](CCCNC(=N)N)C(=O)N[C@H](C(=O)N[C@@H](C)C(=O)N[C@@H](CCCNC(=N)N)C(N)=O)C(C)C)[C@@H](C)CC)C(C)C)C(C)C [Bac2A, RLARIVVIRVAR-NH2, reference compound] (H-RLARIVVIRVAR-NH2; N-terminus assumed) |  | 192 µM (≈ 273 µg/mL) | 3 µM (≈ 4.26 µg/mL) | 24 µM (≈ 34.1 µg/mL) | 12 µM (≈ 17 µg/mL) | 12 µM (≈ 17 µg/mL) | 24 µM (≈ 34.1 µg/mL) | 24 µM (≈ 34.1 µg/mL) | 24 µM (≈ 34.1 µg/mL) | 2 pg/mL | 2 pg/mL | 9 pg/mL | 8 pg/mL | 316 pg/mL | 442 pg/mL | MIC P. aerug ([1]; PAO1): 50 µg/mL (≈ 35.2 µM); MIC S. typhi [12]: 34 µg/mL (≈ 23.9 µM); MIC C. albicans [13]: 9 µg/mL (≈ 6.33 µM); MIC E. faecalis [7]: 17 µg/mL (≈ 12 µM); MIC S. aureus [8]: 17 µg/mL (≈ 12 µM); MIC E. coli (Escherichia coli UB1005): 17 µg/mL (≈ 12 µM); MIC S. epi. [14]: 4 µg/mL (≈ 2.82 µM)
CC(C)[C@H](NC(=O)[C@H](CCCNC(=N)N)NC(=O)[C@H](CCCCN)NC(=O)[C@@H](NC(=O)[C@H](Cc1ccccc1)NC(=O)[C@H](CCCCN)NC(=O)[C@H](Cc1c[nH]c2ccccc12)NC(=O)[C@@H](NC(=O)[C@H](C)N)C(C)C)C(C)C)C(N)=O [HHC123, AVWKFVKRV] (H-AVWKFVKRV-NH2; N-terminus assumed) |  | >240 µM | 60 µM (≈ 67.9 µg/mL) | 120 µM (≈ 136 µg/mL) | 120 µM (≈ 136 µg/mL) | >240 µM | 240 µM (≈ 272 µg/mL) | 240 µM (≈ 272 µg/mL) | >240 µM | 0 pg/mL | 3 pg/mL | -25 pg/mL | 17 pg/mL | 46 pg/mL | 204 pg/mL | antimicrobial activity against P. aeruginosa PAO1 (in words) ([1]; laboratory strain P. aeruginosa PAO1): did not return any generally active substances

Now from value to compound, other results behind:

MIC against P. aeruginosa PAO1 ([1]; PAO1) | MIC [2] | MIC [3] | MIC [4] | MIC [6] | MIC [7] | MIC [8] | MIC [9] | MIC (ESBL E. cloacae) | SMILES | Chemokine induction MCP-3 ([5]; 20 μg/ml peptide) | Chemokine induction MCP-3 ([5]; 100 μg/ml peptide) | Chemokine induction Gro-α ([10]; 20 μg/ml peptide) | Chemokine induction Gro-α ([10]; 100 μg/ml peptide) | Chemokine induction MCP-1 ([11]; 20 μg/ml peptide) | Chemokine induction MCP-1 ([11]; 100 μg/ml peptide) | further results
4 to 12 µM | 12 µM (≈ 17 µg/mL) | 1.5 µM (≈ 2.12 µg/mL) | 6 µM (≈ 8.49 µg/mL) | 6 µM (≈ 8.49 µg/mL) | 24 µM (≈ 34 µg/mL) | 3 µM (≈ 4.24 µg/mL) | 3 µM (≈ 4.24 µg/mL) | 6 µM (≈ 8.49 µg/mL) | CC[C@H](C)[C@H](N)C(=O)N[C@@H](Cc1c[nH]c2ccccc12)C(=O)N[C@@H](Cc1c[nH]c2ccccc12)C(=O)N[C@@H](CCCCN)C(=O)N[C@@H](Cc1c[nH]c2ccccc12)C(=O)N[C@@H](CCCNC(=N)N)C(=O)N[C@@H](CCCNC(=N)N)C(=O)N[C@@H](Cc1c[nH]c2ccccc12)C(=O)N[C@H](C(N)=O)C(C)C [HHC77, IWWKWRRWV] (H-IWWKWRRWV-NH2; N-terminus assumed) | 0 pg/mL | 23 pg/mL | -22 pg/mL | 50 pg/mL | 98 pg/mL | 4548 pg/mL | 
4 to 12 µM | 3.1 µM (≈ 4.31 µg/mL) | 1.5 µM (≈ 2.08 µg/mL) | 1.5 µM (≈ 2.08 µg/mL) | 1.5 µM (≈ 2.08 µg/mL) | 6 µM (≈ 8.34 µg/mL) | 31 µM (≈ 43.1 µg/mL) | 3 µM (≈ 4.17 µg/mL) | 3 µM (≈ 4.17 µg/mL) | CC[C@H](C)[C@H](NC(=O)[C@H](Cc1c[nH]c2ccccc12)NC(=O)[C@H](CCCCN)NC(=O)[C@@H](N)CCCNC(=N)N)C(=O)N[C@@H](Cc1c[nH]c2ccccc12)C(=O)N[C@@H](CCCNC(=N)N)C(=O)N[C@@H](Cc1c[nH]c2ccccc12)C(=O)N[C@@H](Cc1ccccc1)C(=O)N[C@@H](CC(C)C)C(N)=O [HHC75, RKWIWRWFL] (H-RKWIWRWFL-NH2; N-terminus assumed) | 34 pg/mL | 322 pg/mL | 554 pg/mL | 1683 pg/mL | 1313 pg/mL | 6140 pg/mL | 
4 to 12 µM | 49 µM (≈ 68.3 µg/mL) | 0.8 µM (≈ 1.11 µg/mL) | 12 µM (≈ 16.7 µg/mL) | 3 µM (≈ 4.18 µg/mL) | 12 µM (≈ 16.7 µg/mL) | 6 µM (≈ 8.36 µg/mL) | 6 µM (≈ 8.36 µg/mL) | 12 µM (≈ 16.7 µg/mL) | CC[C@H](C)[C@H](NC(=O)[C@H](Cc1ccccc1)NC(=O)[C@H](CCCCN)NC(=O)[C@H](Cc1ccccc1)NC(=O)[C@H](CCCNC(=N)N)NC(=O)[C@@H](N)CCCNC(=N)N)C(=O)N[C@@H](CCCNC(=N)N)C(=O)N[C@@H](Cc1c[nH]c2ccccc12)C(=O)N[C@@H](Cc1c[nH]c2ccccc12)C(N)=O [HHC100, RRFKFIRWW] (H-RRFKFIRWW-NH2; N-terminus assumed) | -1 pg/mL | 0 pg/mL | -18 pg/mL | -43 pg/mL | 179 pg/mL | 197 pg/mL | 
4 to 12 µM | 24 µM (≈ 34.5 µg/mL) | 0.8 µM (≈ 1.15 µg/mL) | 6 µM (≈ 8.63 µg/mL) | 1.5 µM (≈ 2.16 µg/mL) | 24 µM (≈ 34.5 µg/mL) | 1.5 µM (≈ 2.16 µg/mL) | 3 µM (≈ 4.32 µg/mL) | 24 µM (≈ 34.5 µg/mL) | N=C(N)NCCC[C@H](NC(=O)[C@H](CCCNC(=N)N)NC(=O)[C@@H](N)Cc1ccccc1)C(=O)N[C@@H](Cc1c[nH]c2ccccc12)C(=O)N[C@@H](Cc1c[nH]c2ccccc12)C(=O)N[C@@H](CCCCN)C(=O)N[C@@H](Cc1c[nH]c2ccccc12)C(=O)N[C@@H](Cc1ccccc1)C(=O)N[C@@H](CCCCN)C(N)=O [HHC53, FRRWWKWFK] (H-FRRWWKWFK-NH2; N-terminus assumed) | -1 pg/mL | 5 pg/mL | -23 pg/mL | 2 pg/mL | -26 pg/mL | 391 pg/mL | 
